Laboratory results from article PMC7641324, “Small-molecule sensitization of RecBCD helicase–nuclease to a Chi hotspot-activated state” (Nucleic Acids Research, 2020).

Biological target: T1, RecBCD enzyme (RecB subunit) (Escherichia coli, UniProt P08394)
T1 construct: RecBCD holoenzyme (330 kDa, three subunits); with RecC and RecD
Assay: RecBCD nuclease assay with [3H] phage T7 DNA, […] ATP; unaffected by Triton X-100
Format: biochemical

T1 sequence (P08394 2-1180): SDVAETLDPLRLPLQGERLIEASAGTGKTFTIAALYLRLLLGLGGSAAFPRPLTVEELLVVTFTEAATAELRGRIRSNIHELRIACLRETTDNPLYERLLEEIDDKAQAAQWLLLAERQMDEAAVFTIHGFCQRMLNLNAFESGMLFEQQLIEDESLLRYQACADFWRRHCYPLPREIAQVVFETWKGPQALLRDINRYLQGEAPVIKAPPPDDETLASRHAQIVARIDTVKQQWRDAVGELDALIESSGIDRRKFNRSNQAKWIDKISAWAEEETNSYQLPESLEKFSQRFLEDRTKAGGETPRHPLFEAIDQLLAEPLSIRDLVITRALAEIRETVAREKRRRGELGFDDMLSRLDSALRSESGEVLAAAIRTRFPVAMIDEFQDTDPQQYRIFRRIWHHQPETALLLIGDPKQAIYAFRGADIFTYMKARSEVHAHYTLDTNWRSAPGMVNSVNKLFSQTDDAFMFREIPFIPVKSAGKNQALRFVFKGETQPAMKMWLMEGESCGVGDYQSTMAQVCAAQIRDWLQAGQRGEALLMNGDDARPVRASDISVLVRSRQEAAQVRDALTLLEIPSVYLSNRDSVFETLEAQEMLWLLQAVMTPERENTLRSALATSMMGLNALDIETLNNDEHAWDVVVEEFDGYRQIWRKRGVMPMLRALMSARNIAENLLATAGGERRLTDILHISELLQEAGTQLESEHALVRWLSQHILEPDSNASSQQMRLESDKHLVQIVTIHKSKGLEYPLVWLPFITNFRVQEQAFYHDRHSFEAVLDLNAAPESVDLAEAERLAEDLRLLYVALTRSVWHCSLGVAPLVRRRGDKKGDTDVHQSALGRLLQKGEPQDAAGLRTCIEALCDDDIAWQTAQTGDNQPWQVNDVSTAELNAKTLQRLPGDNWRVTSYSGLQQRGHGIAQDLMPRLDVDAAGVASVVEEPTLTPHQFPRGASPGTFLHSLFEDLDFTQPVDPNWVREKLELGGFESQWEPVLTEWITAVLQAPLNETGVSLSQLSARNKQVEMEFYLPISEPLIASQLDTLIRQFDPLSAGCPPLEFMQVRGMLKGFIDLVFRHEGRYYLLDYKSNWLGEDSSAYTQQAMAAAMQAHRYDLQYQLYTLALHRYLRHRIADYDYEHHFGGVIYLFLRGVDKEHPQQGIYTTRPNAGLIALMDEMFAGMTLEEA
T1 sequence (P07648 whole entry, further chain): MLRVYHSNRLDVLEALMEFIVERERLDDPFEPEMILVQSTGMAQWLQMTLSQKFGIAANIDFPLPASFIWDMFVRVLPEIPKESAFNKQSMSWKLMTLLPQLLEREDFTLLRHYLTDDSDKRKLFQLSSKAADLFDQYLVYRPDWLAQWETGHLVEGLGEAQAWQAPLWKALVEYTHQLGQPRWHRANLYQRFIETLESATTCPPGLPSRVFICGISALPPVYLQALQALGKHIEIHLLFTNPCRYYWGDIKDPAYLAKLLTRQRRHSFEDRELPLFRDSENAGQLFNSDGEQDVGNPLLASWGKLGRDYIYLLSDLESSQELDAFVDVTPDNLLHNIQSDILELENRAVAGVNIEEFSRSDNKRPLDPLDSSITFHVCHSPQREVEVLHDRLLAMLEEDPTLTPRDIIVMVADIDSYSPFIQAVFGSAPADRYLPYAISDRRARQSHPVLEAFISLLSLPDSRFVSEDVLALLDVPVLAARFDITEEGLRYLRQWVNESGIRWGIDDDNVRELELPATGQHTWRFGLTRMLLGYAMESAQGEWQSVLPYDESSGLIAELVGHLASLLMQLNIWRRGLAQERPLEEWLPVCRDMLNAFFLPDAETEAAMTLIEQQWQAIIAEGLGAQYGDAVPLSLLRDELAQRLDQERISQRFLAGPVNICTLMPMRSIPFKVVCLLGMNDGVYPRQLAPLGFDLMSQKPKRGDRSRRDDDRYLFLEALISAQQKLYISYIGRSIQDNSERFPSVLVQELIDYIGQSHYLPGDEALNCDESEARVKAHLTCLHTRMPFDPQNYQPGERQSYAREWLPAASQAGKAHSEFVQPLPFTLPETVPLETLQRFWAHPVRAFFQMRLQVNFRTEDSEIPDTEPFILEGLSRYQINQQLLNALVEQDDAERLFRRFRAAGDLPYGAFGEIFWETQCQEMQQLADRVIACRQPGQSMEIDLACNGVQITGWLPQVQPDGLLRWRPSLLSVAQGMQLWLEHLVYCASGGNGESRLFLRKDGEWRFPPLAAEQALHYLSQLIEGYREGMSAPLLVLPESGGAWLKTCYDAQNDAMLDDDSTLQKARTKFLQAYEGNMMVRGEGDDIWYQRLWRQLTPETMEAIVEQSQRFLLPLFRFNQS
T1 sequence (P04993 whole entry, further chain): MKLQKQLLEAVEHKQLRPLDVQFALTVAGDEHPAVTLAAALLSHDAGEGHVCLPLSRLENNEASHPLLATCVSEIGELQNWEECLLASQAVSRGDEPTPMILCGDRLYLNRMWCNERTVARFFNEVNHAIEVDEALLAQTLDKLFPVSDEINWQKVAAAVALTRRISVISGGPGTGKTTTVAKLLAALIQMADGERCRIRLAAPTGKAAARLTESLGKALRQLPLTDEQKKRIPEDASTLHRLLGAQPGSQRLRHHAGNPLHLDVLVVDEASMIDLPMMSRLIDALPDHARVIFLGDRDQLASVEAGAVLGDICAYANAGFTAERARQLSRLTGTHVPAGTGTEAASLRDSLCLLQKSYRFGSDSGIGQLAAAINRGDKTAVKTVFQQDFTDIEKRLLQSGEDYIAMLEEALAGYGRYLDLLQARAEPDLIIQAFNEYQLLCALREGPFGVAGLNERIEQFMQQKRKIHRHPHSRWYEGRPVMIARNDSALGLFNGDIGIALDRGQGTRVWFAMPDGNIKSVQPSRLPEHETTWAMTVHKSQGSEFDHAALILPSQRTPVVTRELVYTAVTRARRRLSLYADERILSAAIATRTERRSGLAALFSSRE

For CCC(Sc1nnc2n(CCOc3ccccc3Cl)c3ccccc3n12)C(=O)O (stereo not shown) [NSAC1003, 2-({7-[2-(2-chlorophenoxy)ethyl]-2,4,5,7-tetraazatricyclo[6.4.0.0^2,^6]dodeca-1(8),3,5,9,11-pentaen-3-yl}sulfanyl)butanoic acid], the IC50 was 6.3 ± 0.3 µM.
